Experimental data reported in patent US20220257569A1, “INDOLE-OXADIAZOLE COMPOUNDS AND THEIR THERAPEUTIC USE” (THE GOVERNING COUNCIL OF THE UNIVERSITY OF TORONTO, priority 2018, published 2022).
“Also recorded” adds a separate entry of the source.

How the values were obtained:
cannabinoid CB1 receptor = target: T1, cannabinoid CB1 receptor (Homo sapiens, UniProt P21554); test: PathHunter β-Arrestin assay (allosteric inhibition of agonist Emax); type: cell-based; conditions: FIG. 1; reduction in Emax not overcome by higher concentrations of agonist
T1 construct: host or cells: HEK293 CB1 β-arrestin cells
T1 sequence (P21554 whole entry): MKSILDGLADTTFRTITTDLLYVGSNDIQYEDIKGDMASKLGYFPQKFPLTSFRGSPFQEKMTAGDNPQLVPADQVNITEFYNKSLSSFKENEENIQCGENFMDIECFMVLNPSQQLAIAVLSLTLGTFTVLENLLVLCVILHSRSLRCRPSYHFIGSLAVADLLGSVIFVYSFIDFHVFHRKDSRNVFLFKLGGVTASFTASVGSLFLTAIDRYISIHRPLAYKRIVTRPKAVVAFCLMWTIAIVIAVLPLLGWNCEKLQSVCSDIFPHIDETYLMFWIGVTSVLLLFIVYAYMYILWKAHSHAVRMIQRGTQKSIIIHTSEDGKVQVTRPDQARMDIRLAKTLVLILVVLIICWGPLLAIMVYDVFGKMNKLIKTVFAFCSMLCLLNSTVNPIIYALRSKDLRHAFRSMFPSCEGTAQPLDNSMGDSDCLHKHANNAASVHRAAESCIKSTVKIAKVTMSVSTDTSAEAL
Excerpt: PathHunter™ enzyme fragment complementation is the most important method to measure β-arrestin recruitment. PathHunter™ β-Arrestin assays developed by DiscoveRX are revolutionary high-throughput screening assays for monitoring GPCR activation following ligand stimulation, without an imaging instrument, fluorescent protein tag, or radioactivity.
Instead, the assays detect GPCR activation through binding of β-arrestin to the expressed GPCR of interest, and measure the interaction of the two proteins using enzyme fragment complementation (EFC). The EFC approach offers a range of benefits for screening, including signal amplification and robust performance.
The larger portion of β-gal, termed EA for enzyme acceptor, is fused to the C-terminus of β-arrestin. The smaller, complementing fragment of β-gal, the ProLink™ tag, is expressed as a fusion protein with the GPCR of interest at the C-terminus. Upon activation, the GPCR is bound by β-arrestin. The interaction of β-arrestin and the GPCR forces the interaction of ProLink and EA, thus allowing complementation of the two fragments of β-gal and the formation of a functional enzyme capable of hydrolyzing substrate and generating a […] signal.
Using the PathHunter™ CB1 kit from DiscoveRX, a cannabinoid CB1 receptor agonist is added and activates the receptor, EA, which is fused to the C-terminus of β-arrestin, and then interacts with the ProLink™ tag which is fused to the CB1 receptor. This will result in the […] signal that is recorded by a luminescence plate reader. The […] signal is directly related to the activation of the receptor, therefore a higher concentration of agonist will yield a larger […] signal. The cannabinoid agonist is added in increasing concentrations to obtain an agonist dose response curve. With pre-incubation of a potential allosteric modulator, either an enhancement of agonist activity with an allosteric enhancer or a decrease in the maximal response of the agonist with an allosteric inhibitor is expected.
All raw data are obtained as luminescence (relative light units), and are normalised and presented as a percentage of the maximal response for the cannabinoid CB1 receptor agonist CP55,940 (2-[(1R,2R,5R)-5-hydroxy-2-(3-hydroxypropyl)cyclohexyl]-5-(2-methyloctan-2-yl)phenol).
The PathHunter™ β-Arrestin assay (from DiscoveRX, Fremont, USA) was performed as follows. HEK293 CB1 β-arrestin cells were plated 48 hours before use and incubated at 37° C., 5% CO2 in a humidified incubator. Test compounds were dissolved in dimethylsulfoxide (DMSO) and diluted in optimized cell culture (OCC, as supplied by DiscoveRX) media to the required concentrations. 5 μL of test compound or vehicle solution was added to each well and incubated for 60 minutes at 37° C., 5% CO2 in a humidified incubator. 5 μL of increasing concentrations of anandamide was added to each well followed by a 90-minute incubation at 37° C., 5% CO2 in a humidified incubator. 55 μL of detection reagent (as supplied by DiscoveRX) was then added, followed by a further 90 minute incubation at room temperature in the dark. Chemiluminescence, reported in relative light units (RLU—a dimensionless value, standardised as a % of maximum stimulation with anandamide), was measured on a standard luminescence plate reader.
Data were plotted as % of maximal stimulation (Emax) caused by agonist versus the logarithm of concentration of agonist, in the presence or absence of a fixed concentration of test compound (modulator) or vehicle. For example, stimulation in the presence of agonist alone will give a value for stimulation expressed in RLU, which can be expressed as a range from 0% (at lowest agonist concentration, e.g., 1 nM) to 100% (at the highest agonist concentration, e.g., 10 μM). […]

DATKO mice = test: Pre-pulse inhibition (PPI) of acoustic startle response; type: in vivo; conditions: 10 mg/kg
Protocol: Adult (>P70) GluN1-knockdown (GluN1KD—F1: C571Bl/6J x 129S1/SvlmJ) and DAT-knockout (DATKO—C57Bl/6J), balanced for sex, were treated with either vehicle (1:1:18-Tween80:95% ethanol:saline) or a novel CB1 negative allosteric modulator (CB1 NAM), ABM300, at 10 mg/kg, was tested in behavioural assays, and compared to littermate controls. Locomotor, stereotypic movements and vertical activity were tested, along with anxiety/mania and sensorimotor gating behaviours. All data were analyzed with two- or three-way ANOVA, as appropriate, and corrected for multiple comparisons.
Loss of PPI is a common symptom found in SCZ and is widely accepted as an endophenotype. It is commonly considered an “interface” of psychosis and cognition. PPI deficits have been described in other psychiatric diseases; during acute mania in BD (Perry et al., 2001). PPI was measured via automated startle boxes. GluN1 KD and DATKO mice all display deficits in PPI, and this behaviour is responsive to treatment with antipsychotics.

mice fed a HFD diet = test: Non-alcoholic fatty liver disease (NAFLD) model, high fat diet mice; type: in vivo
Protocol: Hepatic triglycerides were measured using an ethanolic-KOH saponification method for lysing liver tissue and hydrolyzing triglyceride molecules to release free glycerol.
Serum ALT, a marker for liver damage, was assessed using an Infinity™ ALT Liquid Stable Reagent (ThermoFisher).
A) A representative vehicle-treated liver is characterized by extensive cytoplasmic clearing indicative of both microvesicular and macrovesicular steatosis. […] Formalin-fixed livers were sectioned at […] and stained using standard H&E staining.
A) A representative vehicle-treated liver is characterized by regions of large ORO-stained vacuoles. […] Frozen OCT-fixed livers were cryosectioned at […] and stained using a conventional ORO staining technique, which stains for neutral lipids.
Diet-induced obese (DIO) mouse models can recapitulate the endocrine and metabolic dysfunction observed in obese humans, and thus serve as ideal preclinical models fortesting novel therapeutic compounds. To induce fatty liver or NAFL, male C57BL/6 mice (n=10 vehicle; n=10 CB1 NAM) are fed a high fat diet (60% calories from fat, TD.06414) for a minimum of 8 weeks starting at 6 weeks of age. Control mice (n=10; vehicle TD.08806) are fed a diet consisting of 10% calories from fat. Mice are weighed weekly to monitor weight gain, and food consumption assessed as the average amount of food consumed per day to determine a potential central effect on appetite suppression. […] Mice are dosed daily with 5 or 10 mg/kg indole-oxadiazole or vehicle (5% ethanol: 5% Tween 80:90% saline) by i.p. administration. After 28 days of administration, glucose tolerance and insulin tolerance tests are conducted on separate days. Blood is collected by terminal cardiac puncture under isoflurane anesthetic followed by cervical dislocation to collect sufficient volumes for the subsequent measurement of multiple analytes (insulin, ALT, triglycerides, adiponectin, leptin). Liver is weighed and collected in formalin (H&E staining for histopathology) and OCT (Oil Red O staining for lipid) or snap frozen for mRNA, protein and the assessment of hepatic triglycerides. Gene expression analyses is conducted to assess the levels of CB1 receptor, FAAH, and various lipogenic and fatty acid transport genes.

[1] = HFD 8 weeks, then 10 mg/kg daily for 4 weeks
[2] = HFD 8 weeks, then 10 mg/kg daily for 4 weeks, non-fasted mice
[3] = mouse model of fatty liver disease

`CCc1c(-c2nnc(Nc3ccccc3)o2)[nH]c2ccc(Cl)cc12` [ABM300, 5-(5-Chloro-3-ethyl-1H-indol-2-yl)-N-phenyl-1,3,4-oxadiazol-2-amine] was tested, and the type of modulation (cannabinoid CB1 receptor) was “allosteric inhibitor (negative allosteric modulator)”, the “effect on sensorimotor gating deficits, pre-pulse inhibition (in words)” value (DATKO mice) was “rescues sensorimotor gating deficits” and the “Hepatic Triglycerides” value (mice fed a HFD diet; [1]) was 48.9 ± 14.6 mg/g tissue weight. The “Serum ALT (ALT activity)” value (mice fed a HFD diet; [1]) was 18.1 ± 4.0 U/L, the “Oil Red O (ORO) stained liver sections (in words)” value (mice fed a HFD diet; [2]) was “smaller ORO-stained vacuoles” and the “effect on macrovesicular and microvesicular steatosis, H&E stained liver sections (in words)” value (mice fed a HFD diet; [2]) was “reduces the macrovesicular and microvesicular steatosis; also recorded: cytoplasmic clearing characteristic of glycogen accumulation”. For the same compound, the “effect on levels of triglycerides (in words)” value (mice fed a HFD diet; [3]) was “significantly reduces” and the “effect on serum ALT (in words)” value (mice fed a HFD diet; [3]) was “significantly reduces”.
